This is an account of results in US9382197B2, “Substituted hydroxamic acids and uses thereof” (Millennium Pharmaceuticals, Inc., priority 2010, dated 2016).

pIC50: −log10 of the molar value. Where only a bound is given, the exact number is not on record here.

One experiment concerns the target T1, purified human HDAC6 (Homo sapiens, UniProt Q9UBN7).
T1 construct: purchased BPS Bioscience 5006
T1 sequence (Q9UBN7 1-1215): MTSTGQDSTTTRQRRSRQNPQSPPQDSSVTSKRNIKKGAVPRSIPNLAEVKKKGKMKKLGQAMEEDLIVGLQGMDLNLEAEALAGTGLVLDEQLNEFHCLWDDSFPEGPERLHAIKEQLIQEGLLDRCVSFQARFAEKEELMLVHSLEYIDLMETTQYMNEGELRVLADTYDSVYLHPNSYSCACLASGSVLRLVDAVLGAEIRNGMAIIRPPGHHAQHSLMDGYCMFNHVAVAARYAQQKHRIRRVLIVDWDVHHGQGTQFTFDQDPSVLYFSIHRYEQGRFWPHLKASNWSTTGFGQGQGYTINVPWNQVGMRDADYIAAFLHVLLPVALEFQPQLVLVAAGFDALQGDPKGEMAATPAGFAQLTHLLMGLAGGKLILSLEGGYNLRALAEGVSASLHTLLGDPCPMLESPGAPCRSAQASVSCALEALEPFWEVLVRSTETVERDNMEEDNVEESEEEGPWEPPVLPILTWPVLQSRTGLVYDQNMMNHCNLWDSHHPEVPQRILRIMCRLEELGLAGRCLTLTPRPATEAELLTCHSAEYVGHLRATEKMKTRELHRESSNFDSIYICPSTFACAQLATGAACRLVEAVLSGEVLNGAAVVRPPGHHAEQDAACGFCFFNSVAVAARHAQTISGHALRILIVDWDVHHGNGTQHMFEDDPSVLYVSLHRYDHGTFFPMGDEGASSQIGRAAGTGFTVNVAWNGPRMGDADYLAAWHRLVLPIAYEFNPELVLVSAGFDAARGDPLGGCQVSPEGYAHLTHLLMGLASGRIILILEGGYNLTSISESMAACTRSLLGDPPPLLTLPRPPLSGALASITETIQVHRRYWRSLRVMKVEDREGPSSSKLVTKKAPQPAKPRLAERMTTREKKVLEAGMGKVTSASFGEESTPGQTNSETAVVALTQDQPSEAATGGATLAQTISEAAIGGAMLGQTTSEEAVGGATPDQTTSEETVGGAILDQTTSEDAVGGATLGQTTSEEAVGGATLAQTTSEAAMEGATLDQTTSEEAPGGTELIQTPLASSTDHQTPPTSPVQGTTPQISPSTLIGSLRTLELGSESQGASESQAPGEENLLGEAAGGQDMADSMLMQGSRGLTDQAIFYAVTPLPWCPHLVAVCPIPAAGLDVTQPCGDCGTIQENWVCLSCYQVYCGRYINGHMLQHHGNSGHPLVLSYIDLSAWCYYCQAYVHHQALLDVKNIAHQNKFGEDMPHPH
The experiment in a line: HDAC6 Enzyme Assay. The following applies: bin: greater than 500 nM and less than 1 μM (lower bound in nM, upper bound in μM). The format is biochemical. An outline of the steps: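 Deacetylated product quantified after trypsin digestion as released AMC (340/460 nm), following a 1 h, 30 °C reaction of human HDAC6 with Ac-RGK(Ac)-AMC peptide, quenched by trichostatin A. IC50 derived from DMSO-normalized curves.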
In turn, `CC(C)C(NC(=O)c1ccnc2ccccc12)c1ccc(C(=O)NO)cc1` (stereo not shown) [Compound I-246, N-(1-{4-[(hydroxyamino)carbonyl]phenyl}-2-methylpropyl)quinoline-4-carboxamide] had an IC50 of 500 to 1000 nM.
Turning to `CC(C)(C)C(NC(=O)c1cc(F)cc(F)c1)c1ccc(C(=O)NO)cc1` (stereo not shown) [Compound I-251, 3,5-difluoro-N-(1-{4-[(hydroxyamino)carbonyl]phenyl}-2,2-dimethylpropyl)benzamide], the IC50 was in the range of 500 to 1000 nM.
Regarding `O=C(NO)c1ccc([C@@H](NC(=O)C23CC4CC(CC(C4)C2)C3)c2ccccc2)cc1` [Compound I-259, N-[(S)-{4-[(hydroxyamino)carbonyl]phenyl}(phenyl)methyl]adamantane-1-carboxamide], the IC50 was in the range of 500 to 1000 nM.
In the case of `CC(NC(=O)c1ccc(C(C)(C)C)cc1)c1cccc(C(=O)NO)c1` (stereo not shown) [Compound I-268, 3-{1-[(4-tert-butylbenzoyl)amino]ethyl}-N-hydroxybenzamide], the IC50 lay in the range of 500 to 1000 nM.

Still in this experiment, the particulars now being: bin: greater than 1 μM.
`Cc1cc(C(=O)NC(C)c2ccc(C(=O)NO)cc2)nn1C` (stereo not shown) [Compound I-241, N-(1-{4-[(hydroxyamino)carbonyl]phenyl}ethyl)-1,5-dimethyl-1H-pyrazole-3-carboxamide] showed a negative logarithm of the IC50 (pIC50) of less than 6.00.
As to `CC(NC(=O)c1csc2ccccc12)c1ccc(C(=O)NO)cc1` (stereo not shown) [Compound I-244, N-(1-{4-[(hydroxyamino)carbonyl]phenyl}ethyl)-1-benzothiophene-3-carboxamide], the pIC50 is less than 6.00.
For the compound `Cn1c(C(=O)NC(c2ccc(C(=O)NO)cc2)C(C)(C)C)cc2oc(-c3ccc(C(F)(F)F)cc3)cc21` (stereo not shown) [Compound I-248, N-(1-{4-[(hydroxyamino)carbonyl]phenyl}-2,2-dimethylpropyl)-4-methyl-2-[4-(trifluoromethyl)phenyl]-4H-furo[3,2-b]pyrrole-5-carboxamide], the negative-log IC50 (pIC50) was less than 6.00.
On to `CC(C)C(NC(=O)Cc1cc(C(F)(F)F)cc(C(F)(F)F)c1)c1ccc(C(=O)NO)cc1` (stereo not shown) [Compound I-250, 4-[1-({[3,5-bis(trifluoromethyl)phenyl]acetyl}amino)-2-methylpropyl]-N-hydroxybenzamide], for which the pIC50 was less than 6.00.
As for `Cc1c(C(=O)NC(C)c2cccc(C(=O)NO)c2)cnn1-c1ccccc1` (stereo not shown) [Compound I-257, N-(1-{3-[(hydroxyamino)carbonyl]phenyl}ethyl)-5-methyl-1-phenyl-1H-pyrazole-4-carboxamide], the pIC50 is less than 6.00.
The same measure, in the same setting: to `CC(NC(=O)c1cccn1C)c1cccc(C(=O)NO)c1` (stereo not shown) [Compound I-263, N-(1-{3-[(hydroxyamino)carbonyl]phenyl}ethyl)-1-methyl-1H-pyrrole-2-carboxamide] belongs less than 6.00; to `CC(C)(C)C(NC(=O)C1CCCCC1)c1ccc(C(=O)NO)cc1` (stereo not shown) [Compound I-265, 4-{1-[(cyclohexylcarbonyl)amino]-2,2-dimethylpropyl}-N-hydroxybenzamide], less than 6.00.

The same experiment, now with this note: purified human HDAC6, substrate Ac-Arg-Gly-Lys(Ac)-AMC, 1 hour at 30° C.; reported as bins.
As for `C[C@H](NC(=O)c1cc2ccccc2s1)c1cccc(C(=O)NO)c1` [Compound I-240, N-((1S)-1-{3-[(hydroxyamino)carbonyl]phenyl}ethyl)-1-benzothiophene-2-carboxamide], the pIC50 is 6.30 to 7.00.
Consider `CC(C)[C@@H](NC(=O)c1cc2ccccc2n1C)c1ccc(C(=O)NO)cc1` [Compound I-242, N-((1R)-1-{4-[(hydroxyamino)carbonyl]phenyl}-2-methylpropyl)-1-methyl-1H-indole-2-carboxamide], for which the negative-log IC50 (pIC50) is more than 7.00.
Compound `CCCC(=O)NC(C)c1ccc(C(=O)NO)cc1` (stereo not shown) [Compound I-243, 4-[1-(butyrylamino)ethyl]-N-hydroxybenzamide] had a pIC50 of more than 7.00.
Same read-out and setting: to `CCC[C@@H](NC(=O)c1cc(Cl)c(Cl)n1C)c1ccc(C(=O)NO)cc1` [Compound I-245, 4,5-dichloro-N-((1R)-1-{4-[(hydroxyamino)carbonyl]phenyl}butyl)-1-methyl-1H-pyrrole-2-carboxamide] belongs more than 7.00; to `CC(C)C(NC(=O)c1cc2cc(Cl)ccc2[nH]1)c1ccc(C(=O)NO)cc1` (stereo not shown) [Compound I-247, 5-chloro-N-(1-{4-[(hydroxyamino)carbonyl]phenyl}-2-methylpropyl)-1H-indole-2-carboxamide], more than 7.00; to `O=C(NO)c1ccc([C@@H](NC(=O)c2cc3ccccc3s2)C2CC2)cc1` [Compound I-249, N-((S)-cyclopropyl{4-[(hydroxyamino)carbonyl]phenyl}methyl)-1-benzothiophene-2-carboxamide], 6.30 to 7.00.
Compound `Cc1cc(C(=O)NC(c2ccc(C(=O)NO)cc2)C(C)C)c(C)o1` (stereo not shown) [Compound I-252, N-(1-{4-[(hydroxyamino)carbonyl]phenyl}-2-methylpropyl)-2,5-dimethyl-3-furamide] had a negative-log IC50 (pIC50) of 6.30 to 7.00.
The compound `COc1ccc(C)cc1NC(=O)NC(C)c1ccc(C(=O)NO)cc1` (stereo not shown) [Compound I-253, N-hydroxy-4-[1-({[(2-methoxy-5-methylphenyl)amino]carbonyl}amino)ethyl]benzamide] showed a pIC50 of more than 7.00.
The compound `CC(C)C(NC(=O)C1CCCC1)c1ccc(C(=O)NO)cc1` (stereo not shown) [Compound I-255, 4-{1-[(cyclopentylcarbonyl)amino]-2-methylpropyl}-N-hydroxybenzamide] showed a pIC50 of 6.30 to 7.00.
In turn, `CC(C)C(NC(=O)C1(c2ccccc2)CCCC1)c1ccc(C(=O)NO)cc1` (stereo not shown) [Compound I-258, N-hydroxy-4-(2-methyl-1-{[(1-phenylcyclopentyl)carbonyl]amino}propyl)benzamide] showed a pIC50 of 6.30 to 7.00.
The compound `Cc1cc(C(=O)NC(c2ccc(C(=O)NO)cc2)C(C)(C)C)nn1C` (stereo not shown) [Compound I-260, N-(1-{4-[(hydroxyamino)carbonyl]phenyl}-2,2-dimethylpropyl)-1,5-dimethyl-1H-pyrazole-3-carboxamide] gave a pIC50 of 6.30 to 7.00.
The same measure, in the same setting: the value for `CC(NC(=O)Nc1c(F)cccc1F)c1ccc(C(=O)NO)cc1` (stereo not shown) [Compound I-261, 4-[1-({[(2,6-difluorophenyl)amino]carbonyl}amino)ethyl]-N-hydroxybenzamide] was more than 7.00; that for `Cc1cc(C)c(C(=O)NC(c2ccc(C(=O)NO)cc2)C(C)(C)C)[nH]1` (stereo not shown) [Compound I-262, N-(1-{4-[(hydroxyamino)carbonyl]phenyl}-2,2-dimethylpropyl)-3,5-dimethyl-1H-pyrrole-2-carboxamide] was 6.30 to 7.00.
Regarding `Cc1ccc(C2(C(=O)NC(C)c3ccc(C(=O)NO)cc3)CC2)cc1` (stereo not shown) [Compound I-264, N-hydroxy-4-[1-({[1-(4-methylphenyl)cyclopropyl]carbonyl}amino)ethyl]benzamide], the negative-log IC50 (pIC50) was more than 7.00.
`Cc1ccc(S(=O)(=O)NC(C)c2ccc(C(=O)NO)cc2)cc1` (stereo not shown) [Compound I-266, N-hydroxy-4-(1-{[(4-methylphenyl)sulfonyl]amino}ethyl)benzamide] gave a negative-log IC50 (pIC50) of 6.30 to 7.00.
Compound `CC(NC(=O)c1cccs1)c1cccc(C(=O)NO)c1` (stereo not shown) [Compound I-267, N-(1-{3-[(hydroxyamino)carbonyl]phenyl}ethyl)thiophene-2-carboxamide] had a negative-log IC50 (pIC50) of 6.30 to 7.00.
The compound `CC(NC(=O)c1ccccc1Cl)c1ccc(C(=O)NO)cc1` (stereo not shown) [Compound I-269, 2-chloro-N-(1-{4-[(hydroxyamino)carbonyl]phenyl}ethyl)benzamide] showed a negative logarithm of the IC50 (pIC50) of more than 7.00.
